Laboratory results: the supplement of paper PMC11061612

Legend:
Experiment in all cases: Bliss excess, mean over the matrix (fraction); higher = more synergy
[1] = tested on: PANC-02-03 (Pancreatic Carcinoma)
How it was run: (§1)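 Cell lines in DMEM/F12 or RPMI with 10% FBS were plated in 1536-well plates, held 24 hours at 37°C, 5% CO2, then given two-drug dose matrices for 72 hours (DMSO typically 0.2%). Viability was read by CellTiter-Glo 2.0 luminescence and scaled as inhibition from 0 (vehicle wells) to 1 (blank wells). Combination Emax is the second-highest inhibition in the matrix; Bliss excess is observed combination effect minus expected EA + EB − EA·EB, EA and EB being single-agent effects.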

[2] = tested on: Caov-3 (Ovarian Carcinoma)
How it was run: as §1

[3] = tested on: Calu-6 (Non-Small Cell Lung Carcinoma)
How it was run: as §1

RT4 (Bladder Carcinoma) = tested on: RT4 (Bladder Carcinoma)
How it was run: as §1

[4] = tested on: EB-3 (Burkitt's Lymphoma)
How it was run: as §1

[5] = tested on: NCI-H196 (Small Cell Lung Carcinoma)
How it was run: as §1

HuO-3N1 (Osteosarcoma) = tested on: HuO-3N1 (Osteosarcoma)
How it was run: as §1

[6] = tested on: NCI-H1755 (Lung Adenocarcinoma)
How it was run: as §1

[7] = tested on: LAMA-84 (Chronic Myelogenous Leukemia)
How it was run: as §1

[8] = tested on: SJRH30 (Rhabdomyosarcoma)
How it was run: as §1

[9] = tested on: SK-MM-2 (Plasma Cell Myeloma)
How it was run: as §1

[10] = tested on: HTC-C3 (Thyroid Gland Carcinoma)
How it was run: as §1

786-0 (Kidney Carcinoma) = tested on: 786-0 (Kidney Carcinoma)
How it was run: as §1

[11] = tested on: SNU-175 (Colorectal Carcinoma)
How it was run: as §1

[12] = tested on: AN3-CA (Endometrial Carcinoma)
How it was run: as §1

ES-2 (Ovarian Carcinoma) = tested on: ES-2 (Ovarian Carcinoma)
How it was run: as §1

[13] = tested on: NCI-H1563 (Lung Adenocarcinoma)
How it was run: as §1

[14] = tested on: FLO-1 (Esophageal Adenocarcinoma)
How it was run: as §1

[15] = tested on: CML-T1 (Chronic Myelogenous Leukemia)
How it was run: as §1

[16] = tested on: RPMI-8866 (Chronic Myelogenous Leukemia)
How it was run: as §1

SMILES | Bliss excess [1] | Bliss excess [2] | Bliss excess [3] | Bliss excess (RT4 (Bladder Carcinoma)) | Bliss excess [4] | Bliss excess [5] | Bliss excess (HuO-3N1 (Osteosarcoma)) | Bliss excess [6] | Bliss excess [7] | Bliss excess [8] | Bliss excess [9] | Bliss excess [10] | Bliss excess (786-0 (Kidney Carcinoma)) | Bliss excess [11] | Bliss excess [12] | Bliss excess (ES-2 (Ovarian Carcinoma)) | Bliss excess [13] | Bliss excess [14] | Bliss excess [15] | Bliss excess [16]
Cc1cc2ncnn2cc1Nc1ncc2c(n1)n(C1CCOCC1)c(=O)n2C [AZD7648] + CCN(CCO)CCCOc1ccc2c(Nc3cc(CC(=O)Nc4cccc(F)c4)[nH]n3)ncnc2c1 [AZD2811] (first compound max 10 µM, 7x7, partner max 1 µM) | 0.0163 | -0.0523 | 0.0268 | 0.0534 | -0.0338 | -0.0181 | -0.0184 | 0.0038 | 0.115 | 0.0417 | -0.0115 | 0.0226 | 0.0259 | 0.0136 | 0.0113 | 0.0083 | 0.0036 | 0.0161 | 0.069 | -0.0233
Cc1cc2ncnn2cc1Nc1ncc2c(n1)n(C1CCOCC1)c(=O)n2C [AZD7648] + CN(C)CCCOc1ccc(-c2ccc3ncc4c(c3c2)n(C2CCOCC2)c(=O)n4C)cn1 [AZD0156] (first compound max 10 µM, 7x7, partner max 1 µM) | 0.0002 | -0.0085 | 0.0024 | 0.0212 | -0.0867 | -0.0173 | -0.0416 | 0.0118 | -0.0024 | 0.0105 | -0.0552 | 0.0024 | 0.0224 | -0.0021 | -0.0224 | 0.029 | -0.0164 | -0.0665 | -0.0092 | -0.0363
Cc1cc2ncnn2cc1Nc1ncc2c(n1)n(C1CCOCC1)c(=O)n2C [AZD7648] + C[C@@H]1COCCN1C2=NC(=NC(=C2)C3(CC3)[S@](=N)(=O)C)C4=C5C=CNC5=NC=C4 [AZD6738] (first compound max 10 µM, 7x7, partner max 10 µM) | 0.0561 | 0.0433 | -0.018 | 0.0354 | -0.0278 | 0.0126 | 0.0042 | 0.0513 | -0.0284 | 0.0113 | 0.0022 | 0.0229 | 0 | -0.0374 | 0.0515 | 0.0572 | 0.0367 | -0.0191 | -0.0465 | -0.028
Cc1cc2ncnn2cc1Nc1ncc2c(n1)n(C1CCOCC1)c(=O)n2C [AZD7648] + O=C(c1cc(Cc2n[nH]c(=O)c3ccccc23)ccc1F)N1CCN(C(=O)C2CC2)CC1 [Olaparib] (first compound max 10 µM, 7x7, partner max 10 µM) | -0.0411 | -0.0336 | -0.0391 | 0.0016 | -0.0401 | -0.0435 | -0.031 | -0.0464 | -0.0044 | -0.0148 | -0.0204 | -0.0224 | -0.0162 | -0.025 | -0.0738 | -0.0354 | -0.0487 | -0.0259 | -0.0483 | 0.0298
COc1cccc2c1C(=O)c1c(O)c3c(c(O)c1C2=O)C[C@@](O)(C(=O)CO)C[C@@H]3O[C@H]1C[C@H](N)[C@H](O)[C@H](C)O1 [Doxorubicin] + Cc1cc2ncnn2cc1Nc1ncc2c(n1)n(C1CCOCC1)c(=O)n2C [AZD7648] (first compound max 1 µM, 7x7, partner max 10 µM) | 0.0001 | 0.024 | 0.0914 | 0.039 | -0.0391 | -0.0383 | -0.0523 | 0.104 | 0.121 | 0.122 | -0.0137 | 0.0263 | 0.082 | 0.0265 | -0.0534 | 0.076 | 0.0572 | 0.027 | 0.0824 | 0.193
COc1cccc(OCCCN)c1-c1cc(Nc2cnc(C#N)cn2)n[nH]1 [Prexasertib] + C=CCn1c(=O)c2cnc(Nc3ccc(N4CCN(C)CC4)cc3)nc2n1-c1cccc(C(C)(C)O)n1 [AZD1775] (first compound max 1 µM, partner max 1 µM) | 0.0504 | -0.0546 | -0.0201 | 0.128 | 0.0312 | -0.0317 | 0.122 | -0.0104 | 0.0731 | 0.108 | 0.0085 | 0.145 | 0.0707 | 0.0595 | 0.0766 | 0.0006 | -0.0101 | 0.0488 | 0.189 | 0.0591
COc1cccc(OCCCN)c1-c1cc(Nc2cnc(C#N)cn2)n[nH]1 [Prexasertib] + CCc1c2c(nc3ccc(O)cc13)-c1cc3c(c(=O)n1C2)COC(=O)[C@]3(O)CC [SN-38] (first compound max 1 µM, 7x7, partner max 0.3 µM) | 0.0098 | -0.0539 | -0.0116 | -0.0055 | -0.0404 | 0.0391 | -0.0105 | -0.0057 | -0.0066 | 0.012 | -0.0714 | 0.0844 | -0.0368 | -0.0298 | 0.0972 | -0.0222 | -0.0111 | 0.0153 | 0.0077 | 0.0104
COc1cccc(OCCCN)c1-c1cc(Nc2cnc(C#N)cn2)n[nH]1 [Prexasertib] + CN(C)CCCOc1ccc(-c2ccc3ncc4c(c3c2)n(C2CCOCC2)c(=O)n4C)cn1 [AZD0156] (first compound max 1 µM, 7x7, partner max 1 µM) | -0.0009 | -0.0134 | -0.0507 | 0.0482 | 0.0498 | -0.0547 | 0.0092 | -0.011 | -0.0219 | -0.0242 | -0.0392 | -0.029 | -0.0576 | 0.0462 | -0.0442 | 0.0072 | -0.0416 | -0.056 | -0.0328 | -0.009
COc1cccc(OCCCN)c1-c1cc(Nc2cnc(C#N)cn2)n[nH]1 [Prexasertib] + C[C@@H]1COCCN1C2=NC(=NC(=C2)C3(CC3)[S@](=N)(=O)C)C4=C5C=CNC5=NC=C4 [AZD6738] (first compound max 1 µM, 7x7, partner max 10 µM) | 0.0434 | -0.0647 | -0.0852 | 0.0645 | -0.0598 | -0.049 | 0.0204 | -0.0534 | -0.0052 | -0.0192 | -0.0348 | -0.0034 | -0.0219 | 0.0641 | -0.0308 | -0.0375 | -0.0878 | -0.0233 | -0.0309 | 0.0633
COc1cccc(OCCCN)c1-c1cc(Nc2cnc(C#N)cn2)n[nH]1 [Prexasertib] + Cc1cc2ncnn2cc1Nc1ncc2c(n1)n(C1CCOCC1)c(=O)n2C [AZD7648] (first compound max 1 µM, 7x7, partner max 10 µM) | -0.0019 | -0.0376 | -0.0354 | -0.0045 | -0.0106 | -0.0361 | -0.0498 | -0.0249 | -0.0208 | -0.0311 | -0.0512 | -0.018 | -0.0276 | 0.0311 | -0.0393 | -0.0357 | -0.0146 | -0.0817 | -0.0175 | 0.0455
COc1cccc(OCCCN)c1-c1cc(Nc2cnc(C#N)cn2)n[nH]1 [Prexasertib] + O=C(c1cc(Cc2n[nH]c(=O)c3ccccc23)ccc1F)N1CCN(C(=O)C2CC2)CC1 [Olaparib] (first compound max 1 µM, 7x7, partner max 10 µM) | -0.0932 | -0.0138 | -0.0701 | 0.0044 | -0.195 | -0.0641 | -0.0658 | -0.0582 | -0.0307 | -0.104 | -0.011 | -0.0615 | -0.0427 | 0.0762 | -0.0523 | -0.102 | -0.037 | -0.0721 | -0.03 | 0.0028
COc1cc2c(cc1OCCCCCOc1cc3c(cc1OC)C(=O)N1C=C(C)C[C@H]1C=N3)N=C[C@@H]1CC(C)=CN1C2=O [SG3199] + O=C(c1cc(Cc2n[nH]c(=O)c3ccccc23)ccc1F)N1CCN(C(=O)C2CC2)CC1 [Olaparib] (first compound max 0.001 µM, 7x7, partner max 10 µM) | -0.0487 | -0.0475 | -0.013 | -0.0164 | -0.0509 | -0.0387 | -0.0446 | -0.0207 | -0.0015 | 0.0009 | -0.0179 | -0.013 | -0.0223 | -0.0317 | -0.0292 | -0.045 | -0.0428 | -0.0486 | -0.006 | -0.0032
CCc1c2c(nc3ccc(O)cc13)-c1cc3c(c(=O)n1C2)COC(=O)[C@]3(O)CC [SN-38] + CN(C)CCCOc1ccc(-c2ccc3ncc4c(c3c2)n(C2CCOCC2)c(=O)n4C)cn1 [AZD0156] (first compound max 0.3 µM, 7x7, partner max 1 µM) | -0.007 | 0.0175 | 0.0491 | -0.0184 | -0.0659 | -0.049 | -0.0592 | 0.0829 | 0.08 | 0.0722 | 0.0076 | 0.105 | 0.0032 | 0.0229 | -0.0446 | 0.0144 | -0.0605 | 0.0218 | 0.0241 | 0.0969
CC(=O)Nc1cccc(-n2c(=O)n(C3CC3)c(=O)c3c(Nc4ccc(I)cc4F)n(C)c(=O)c(C)c32)c1 [Trametinib] + Cc1nc(-c2cn3c(n2)-c2ccc(-c4cnn(C(C)(C)C(N)=O)c4)cc2OCC3)n(C(C)C)n1 [Taselisib] (first compound max 1 µM, 7x7, partner max 10 µM) | 0.179 | 0.0289 | 0.168 | 0.0566 | 0.0489 | 0.0039 | 0.0402 | 0.115 | 0.0537 | 0.076 | 0.0386 | 0.113 | -0.0229 | 0.0779 | 0.0575 | 0.0915 | 0.103 | 0.047 | 0.0426 | 0.118
CC1(C)CCC(CN2CCN(c3ccc(C(=O)NS(=O)(=O)c4ccc(NCC5CCOCC5)c([N+](=O)[O-])c4)c(Oc4cnc5[nH]ccc5c4)c3)CC2)=C(c2ccc(Cl)cc2)C1 [Venetoclax] + C1CN(CCC1(C(=O)N[C@@H](CCO)C2=CC=C(C=C2)Cl)N)C3=NC=NC4=C3C=CN4 [Capivasertib] (first compound max 1 µM, 7x7, partner max 3 µM) | -0.0742 | -0.0458 | -0.0558 | -0.0469 | -0.0683 | -0.0377 | -0.0347 | -0.034 | -0.0498 | -0.0008 | -0.0449 | -0.0418 | -0.0428 | -0.06 | 0.0482 | -0.0389 | -0.0411 | -0.0841 | -0.0342 | -0.0224
